# Residues, ends and D or L forms follow the SMILES beside them. *: point of attachment. Cbz = O=C(OCc1ccccc1)*
# Test system: WT MYXV
# Format: cell-based, myxoma virus
molecule,measurement,value
"CC(C)C[C@@H](C=O)NC(=O)[C@H](CC(C)C)NC(=O)[C@H](CC(C)C)NC(=O)OCc1ccccc1 [MG132, Z-Leu-Leu-Leu-al] (Cbz-Leu-Leu-Leu-aldehyde)",improved infection in SAMD9-null cells,did not affect improved infection
Actinomycin D,elevated luciferase activity resulting from infecting SAMD9-null cells,did not eliminate the elevated luciferase activity
same,overall luciferase activity compared with untreated corresponding infection,did reduce the overall luciferase activity
cytosine beta-D-arabinofuranoside [Cytosine arabinoside],luciferase activity emitted from infection in both cell lines,did not affect luciferase activity

# — US12428626B2 (priority 2018, dated 2025)
